Values joined by “and” are separate entries in the source; they are usually repeats but may differ in a detail not shown here. Identical values can stand only once.
How the values were obtained:
Type in all cases: in vivo
[1] = Pharmacokinetics of a single oral dose of Toltrazuril in horses (blood levels); conditions: single oral dose of Toltrazuril 10 mg/kg; for concentration at 24 h / Concentration in mg/l of Blood, 24 hours: 24 h post treatment; for concentration at 24 h: read-out: Concentration in mg/l of Blood, 24 hours; for concentration at 48 h / Concentration in mg/l of Blood, 48 hours: 48 h post treatment; for concentration at 48 h: read-out: Concentration in mg/l of Blood, 48 hours; for concentration at 72 h / Concentration in mg/l of Blood, 72 hours: 72 h post treatment; for concentration at 72 h: read-out: Concentration in mg/l of Blood, 72 hours; for Concentration in mg/l of Blood, 24 hours: 1440 min; for Concentration in mg/l of Blood, 48 hours: 2880 min; for Concentration in mg/l of Blood, 72 hours: 4320 min
Protocol: A pharmacokinetic study was conducted in horses comparing blood levels of Toltrazuril, Ponazuril and Toltrazuril Sulfoxide at various times post a single dose of Toltrazuril. All horses received a single dose of 10 mg/kg, which was administered orally as a suspension. Blood samples were drawn at the time of treatment (0) and at 0.25, 0.5, 1, 2, 4, 6, 12, 24, 48 and 72 hours post treatment. […] This was an indication that Ponazuril, alone, would produce acceptable blood levels that are envisioned to pass the blood-brain barrier, a characteristic required to treat neurological diseases such as those caused by Sarcocystis neurona, Toxoplasma gondii, Neospora caninum and Neospora

[2] = Drug levels in serum after repeated doses of Toltrazuril in horses; parameters: unit not given here; conditions: for AVG drug level in serum, 48 Hrs / AVG drug level in serum, 96 Hrs / AVG drug level in serum, 240 Hrs: group average; for Drug level in serum, 48 Hrs / Drug level in serum, 96 Hrs / Drug level in serum, 240 Hrs: individual horse
Protocol: (§1) This experiment was conducted in order to determine whether triazineones such as Toltrazuril can pass the blood-brain barrier. Normal horses were divided into three groups of three horses per group. Group 1 horses received Toltrazuril administered orally as a 5% suspension at a dose level of 2.5 mg/Kg. Group 2 horses received Toltrazuril administered orally as a 5% suspension at a dose level of 5.0 mg/Kg. Group 3 horses received Toltrazuril administered orally as a 5% suspension at a dose level of 7.5 mg/Kg. The dosing was repeated daily for 10 days. Blood samples were drawn at 48, 96 and 240 hours and the concentration of Toltrazuril, Toltrazuril sulfoxide and Ponazuril in the serum was measured. Ten days after the start of the treatment (Day 10), a sample of cerebral spinal fluid was removed from each horse and the concentrations of Toltrazuril, Toltrazuril Sulfoxide and Ponazuril were again measured in these samples. The concentrations of Toltrazuril, Toltrazuril Sulfoxide and Ponazuril in the serum and cerebral spinal fluid are reported in TABLES 5a and 5b.

[3] = Drug levels in cerebral spinal fluid after repeated doses of Toltrazuril in horses; parameters: Drug level in Cerebral Spinal Fluid, Day 10 / AVG drug level in Cerebral Spinal Fluid, Day 10: unit not given here; conditions: Day 10; for AVG drug level in Cerebral Spinal Fluid, Day 10: group average; for Drug level in Cerebral Spinal Fluid, Day 10: individual horse
Protocol: as §1

[4] = Passing of the blood-brain barrier in horses; conditions: after oral Toltrazuril daily for 10 days
Protocol: as §1

[5] = horse, blood, po, 10 mg/kg, suspension, one value per horse (A-F)
[6] = suspension, one value per horse (A-F), 10 mg/kg
[7] = Toltrazuril 2.5 mg/Kg oral daily for 10 days
[8] = Toltrazuril 5.0 mg/Kg oral daily for 10 days
[9] = Toltrazuril 7.5 mg/Kg oral daily for 10 days

Cc1cc(-n2c(=O)[nH]c(=O)n(C)c2=O)ccc1Oc1ccc([S+]([O-])C(F)(F)F)cc1 (centres unmarked) [Toltrazuril Sulfoxide]
concentration at 0.25 h ([1]; horse, blood, po, 10 mg/kg, suspension, 0.25 h post treatment, one value per horse (A-F), read-out: Concentration in mg/l of Blood, 0.25 hours): < 0.01 mg/L
concentration at 24 h [1, 5]: 0.407 mg/L
concentration at 48 h [1, 5]: 0.732 mg/L
concentration at 72 h [1, 5]: 0.592 mg/L
levels in serum/bloodstream of horses receiving Toltrazuril (in words) [1]: significant levels
Concentration in mg/l of Blood, 24 hours [1, 6]: 0.566 mg/L and 0.461 mg/L and 0.481 mg/L and 0.633 mg/L
Concentration in mg/l of Blood, 48 hours [1, 6]: 0.454 mg/L and 0.477 mg/L and 0.749 mg/L and 0.741 mg/L and 0.642 mg/L
Concentration in mg/l of Blood, 72 hours [1, 6]: 0.346 mg/L and 0.377 mg/L

Cc1cc(-n2c(=O)[nH]c(=O)n(C)c2=O)ccc1Oc1ccc(SC(F)(F)F)cc1 [Toltrazuril, reference compound]
concentration at 24 h [1, 5]: 6.43 mg/L
concentration at 48 h [1, 5]: 7.61 mg/L
concentration at 72 h [1, 5]: 6.65 mg/L
Concentration in mg/l of Blood, 0.25 hours ([1]; suspension, 0.25 h post treatment, one value per horse (A-F), 10 mg/kg, 15 min): 0.061 mg/L
Concentration in mg/l of Blood, 1 hour ([1]; suspension, 1 h post treatment, one value per horse (A-F), 10 mg/kg, 60 min): 3.286 mg/L
Concentration in mg/l of Blood, 24 hours [1, 6]: 11.690 mg/L and 7.236 mg/L and 8.694 mg/L and 10.224 mg/L
Concentration in mg/l of Blood, 48 hours [1, 6]: 6.677 mg/L and 9.758 mg/L and 8.234 mg/L and 6.869 mg/L and 7.096 mg/L
Concentration in mg/l of Blood, 72 hours [1, 6]: 5.058 mg/L and 7.633 mg/L
AVG drug level in serum, 48 Hrs [2, 7]: 6.70
AVG drug level in serum, 96 Hrs [2, 7]: 10.68
AVG drug level in serum, 240 Hrs [2, 7]: 13.37
Drug level in serum, 48 Hrs [2, 7]: 4.49 and 4.0 and 11.6
Drug level in serum, 96 Hrs [2, 7]: 9.85 and 9.09 and 13.1
Drug level in serum, 240 Hrs [2, 7]: 15.29 and 9.60 and 15.21
AVG drug level in serum, 48 Hrs [2, 8]: 8.57
AVG drug level in serum, 96 Hrs [2, 8]: 15.46
AVG drug level in serum, 240 Hrs [2, 8]: 19.68
Drug level in serum, 48 Hrs [2, 8]: 7.28 and 9.18 and 9.26
Drug level in serum, 96 Hrs [2, 8]: 14.17 and 14.03 and 18.19
Drug level in serum, 240 Hrs [2, 8]: 24.92 and 16.54 and 17.59
AVG drug level in serum, 48 Hrs [2, 9]: 10.18
AVG drug level in serum, 96 Hrs [2, 9]: 21.92
AVG drug level in serum, 240 Hrs [2, 9]: 25.95
Drug level in serum, 48 Hrs [2, 9]: 9.90 and 10.46
Drug level in serum, 96 Hrs [2, 9]: 27.74 and 19.55 and 18.47
Drug level in serum, 240 Hrs [2, 9]: 30.08 and 24.15 and 23.53
AVG drug level in Cerebral Spinal Fluid, Day 10 [3, 7]: 0.15
Drug level in Cerebral Spinal Fluid, Day 10 [3, 7]: 0.23 and 0.06 and 0.15
AVG drug level in Cerebral Spinal Fluid, Day 10 [3, 8]: 0.19
Drug level in Cerebral Spinal Fluid, Day 10 [3, 8]: 0.19 and 0.12 and 0.26
AVG drug level in Cerebral Spinal Fluid, Day 10 [3, 9]: 0.39
Drug level in Cerebral Spinal Fluid, Day 10 [3, 9]: 0.50 and 0.21 and 0.45
crossing of the blood-brain barrier [4]: effectively cross the blood-brain barrier

— patent US6150361A, “Triazineone compounds for treating diseases due to sarcosystis, neospora and toxoplasma” (Bayer Corporation, priority 1998, dated 2000)
